Results on one compound are retold here after article PMC4664966, “Discovery and characterization of novel inhibitors of the sodium-coupled citrate transporter (NaCT or SLC13A5)” (Scientific Reports, 2015).

Series [1] concerns the target Sodium channel, type V, alpha-subunit (NaV1.5) (Homo sapiens, UniProt Q14524). The experiment in a line: Selectivity data (Table S1).
Series [2] deals with DIO mice. Description: Plasma glucose concentrations in DIO mice, acute or sub-chronic dosing. The settings on record: single 250 mg/kg dose or 3 days 250 mg/kg BID.
In series [3] the target is Cyclooxygenase 2 (prostaglandin endoperoxide synthase 2) (Homo sapiens, UniProt P35354). Description: Selectivity data (Table S1). It is filed as biochemical.
Series [4] can be described thus: Genetic toxicity assays.
Series [5] concerns the target Choline transporter (CHT1) (SLC5A7) (Homo sapiens, UniProt Q9GZV3). Description: Selectivity data (Table S1).
The subject of series [6] is human hepatocytes. The experiment in a line: Incorporation of [14C]-citrate into triglycerides by human hepatocytes. It is filed as cell-based. The settings on record: radiolabeled citrate for 24 hours. How it is done:
Incorporation of [^14C]-citrate into triglycerides by human hepatocytes was measured using the same procedure as above except cells were incubated with the radioactive citrate for 24 hours. Subsequently, the media was aspirated and 100 μL of isopropyl alcohol:THF (9:1) was added. The plate was shaken for 15 minutes, centrifuged at 3000 revolutions per minute for 5 minutes, and 50 μL of supernatant from each well was applied per TLC lane (Whatman LK6D Silica Gel Plates). Radiolabeled lipids were resolved using a 2-solvent system: Solvent 1 contained a 100:100:100:40:36 mixture of ethyl acetate:isopropyl alcohol:CHCl3:MeOH:0.25% KCl and Solvent 2 a 70:27:3 hexane:diethyl ether:acetic acid mixture. The TLC plate was dried under nitrogen for 30 minutes and [^14C]-standards added to a vacant lane. Bands were visualized and quantitated using a Molecular Dynamics’ Storm 860 PhosphorImager system following 18–36 hours exposure to a Phosphorimager screen.

The target of series [7] is T1, NaDC1 (SLC13A2) (Homo sapiens, UniProt Q13183).
T1 construct: host or cells: HEK-293, transient (Fugene HD)
T1 sequence (Q13183 1-592): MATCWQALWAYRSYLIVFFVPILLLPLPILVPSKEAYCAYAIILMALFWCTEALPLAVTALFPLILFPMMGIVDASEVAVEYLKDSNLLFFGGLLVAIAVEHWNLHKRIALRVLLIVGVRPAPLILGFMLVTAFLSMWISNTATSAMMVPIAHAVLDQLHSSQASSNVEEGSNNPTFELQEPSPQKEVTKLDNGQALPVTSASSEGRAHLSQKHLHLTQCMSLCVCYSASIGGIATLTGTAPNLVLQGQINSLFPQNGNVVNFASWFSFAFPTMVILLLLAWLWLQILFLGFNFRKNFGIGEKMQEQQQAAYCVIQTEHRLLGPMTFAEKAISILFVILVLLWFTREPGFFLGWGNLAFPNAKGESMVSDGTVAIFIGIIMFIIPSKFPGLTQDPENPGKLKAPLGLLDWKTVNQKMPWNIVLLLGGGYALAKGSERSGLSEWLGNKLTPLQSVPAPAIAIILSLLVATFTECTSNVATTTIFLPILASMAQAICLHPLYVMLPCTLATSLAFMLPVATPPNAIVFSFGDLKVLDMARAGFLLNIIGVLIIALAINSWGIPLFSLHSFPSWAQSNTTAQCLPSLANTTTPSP
The experiment in a line: Inhibition of citrate or succinate uptake in HEKNaDC1 cells. It is filed as cell-based. From the text:
Protocols to generate the stable cell line overexpressing NaCT or cell transfection with SLC13A2 or SLC13A3 can be found in the supporting information. HEK-293 cells stably transfected with the human sodium Citrate transporter SLC13A5 or transiently transfected with the human SLC13A2 or SLC13A3 transporter were removed from the flasks with dissociation buffer and re-suspended in an equal volume of growth media (DMEM, High Glucose supplemented with 10% heat inactivated fetal bovine serum and 500 μg/ml Geneticin). For the transient transfections, Geneticin was eliminated from the media. Cell suspensions were centrifuged at 1,000 rpm for approximately 5 minutes. Resulting cell pellets were re-suspended in growth media and placed in a 37 °C water bath for approximately 10 minutes prior to a final spin at 1,000 rpm. Following this spin the resulting cell pellets were re-suspended in assay buffer, 142 mM NaCl (or 142 mM choline chloride), 5 mM KCl, 1.2 mM MgSO4, 1.5 mM CaCl, 5 mM glucose and 25 mM HEPES pH 7.4. Cell suspensions were counted and the concentration adjusted as needed with assay buffer to 2e[6] viable cells /mL. 20 μL of cell suspension were added to 384-well cyotstar-T plates followed by the addition of 5 μL of 10× concentration of compound. Cells and compound were incubated at 37 °C for approximately 30 minutes prior to the addition of 25 μL of 300 μM citric acid (16 μM radiolabeled [^14C]-citric acid and 284 μM cold citric acid) to make a 150 μM final concentration of citric acid or 21 μM [^14C]-succinic acid. After substrate addition, the uptake of radioactivity was monitored on Perkin Elmer Microbeta plate reader. Data from reads between 45–90 minutes was used to assess the ability of test compounds to inhibit the uptake of citric or succinic acid. […]
were plated, and incubated for 48 hours. Following the incubation, NaDC1 and NaDC3 assays were executed identical to the procedure for NaCT. […]
The solution was heated to reflux until the total volume was reduced to ~25 mL. […]

In series [8] the target is Epidermal growth factor receptor (EGFR) (Homo sapiens, UniProt P00533). The experiment in a line: Selectivity data (Table S1). It is filed as binding.
The target of series [9] is Dopamine receptor 1 (D1) (Homo sapiens, UniProt P21728). Description: Selectivity data (Table S1). It is filed as binding.
The test system of series [10] is mice fed a HFD. The experiment in a line: Chronic treatment of mice fed a HFD (OGTT, hepatic lipids).
Experimental: In studies requiring chronic treatment with compound, mice were purchased at 18 weeks of age following 13 weeks of HFD administration (D12459i; 60% of the calories from fat). Mice were maintained on HFD for the duration of the study in a 12:12-h light/dark cycle. […] To perform an oral glucose tolerance test (day 20 of dosing), mice were fasted at 6:00 AM to 12:00 PM and administered P.O. 1.5 g/kg at 12:00 PM. Glucose concentrations were determined using an AlphaTrak (Abbott Laboratories) at 0, 15, 30, 60, and 90 minutes. […] Hepatic lipids were measured by LC-MS/MS as previously described[42].
Series [11] deals with CYP2C9 (Homo sapiens, UniProt P11712). The experiment in a line: Selectivity data (Table S1). Particulars: 3 µM. It is filed as in vitro ADME.
Series [12] deals with Cytochrome P450 2C9 (CYP2C9) (Homo sapiens, UniProt P11712). The experiment in a line: Selectivity data (Table S1). It is filed as in vitro ADME.
[13] abbreviates: HFD mice, 250 mg/kg BID for 21 days.

Sequence of CYP2C9 (P11712 whole entry): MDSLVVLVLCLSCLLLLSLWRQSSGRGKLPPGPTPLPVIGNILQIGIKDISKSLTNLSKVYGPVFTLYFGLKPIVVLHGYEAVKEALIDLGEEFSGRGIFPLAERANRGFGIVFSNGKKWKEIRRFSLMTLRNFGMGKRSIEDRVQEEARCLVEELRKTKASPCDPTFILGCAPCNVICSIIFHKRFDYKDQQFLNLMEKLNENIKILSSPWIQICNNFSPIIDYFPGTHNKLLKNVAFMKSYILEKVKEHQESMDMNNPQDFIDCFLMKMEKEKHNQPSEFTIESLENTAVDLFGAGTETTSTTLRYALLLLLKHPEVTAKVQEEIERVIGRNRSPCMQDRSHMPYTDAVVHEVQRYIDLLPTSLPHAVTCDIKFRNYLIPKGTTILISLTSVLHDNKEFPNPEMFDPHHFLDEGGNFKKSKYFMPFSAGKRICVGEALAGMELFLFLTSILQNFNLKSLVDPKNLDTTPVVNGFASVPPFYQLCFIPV
Sequence of Cytochrome P450 2C9 (CYP2C9) (P11712 whole entry): as above
Sequence of Choline transporter (CHT1) (SLC5A7) (Q9GZV3 whole entry): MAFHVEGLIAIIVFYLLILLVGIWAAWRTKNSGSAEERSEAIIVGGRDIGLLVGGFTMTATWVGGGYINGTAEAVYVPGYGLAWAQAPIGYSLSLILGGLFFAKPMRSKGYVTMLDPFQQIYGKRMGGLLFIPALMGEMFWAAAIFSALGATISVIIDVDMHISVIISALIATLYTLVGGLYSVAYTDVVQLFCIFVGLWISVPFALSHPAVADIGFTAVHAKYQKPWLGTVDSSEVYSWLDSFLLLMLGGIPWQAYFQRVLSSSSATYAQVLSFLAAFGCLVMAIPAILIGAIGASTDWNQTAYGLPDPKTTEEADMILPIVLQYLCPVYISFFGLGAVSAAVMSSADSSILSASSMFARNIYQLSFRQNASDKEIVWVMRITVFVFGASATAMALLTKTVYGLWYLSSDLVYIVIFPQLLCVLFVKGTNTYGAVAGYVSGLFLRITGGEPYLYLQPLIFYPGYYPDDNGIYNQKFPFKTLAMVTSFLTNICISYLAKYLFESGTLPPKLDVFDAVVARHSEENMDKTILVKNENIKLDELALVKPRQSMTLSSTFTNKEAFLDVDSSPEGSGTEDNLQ
Sequence of Epidermal growth factor receptor (EGFR) (P00533 25-1210): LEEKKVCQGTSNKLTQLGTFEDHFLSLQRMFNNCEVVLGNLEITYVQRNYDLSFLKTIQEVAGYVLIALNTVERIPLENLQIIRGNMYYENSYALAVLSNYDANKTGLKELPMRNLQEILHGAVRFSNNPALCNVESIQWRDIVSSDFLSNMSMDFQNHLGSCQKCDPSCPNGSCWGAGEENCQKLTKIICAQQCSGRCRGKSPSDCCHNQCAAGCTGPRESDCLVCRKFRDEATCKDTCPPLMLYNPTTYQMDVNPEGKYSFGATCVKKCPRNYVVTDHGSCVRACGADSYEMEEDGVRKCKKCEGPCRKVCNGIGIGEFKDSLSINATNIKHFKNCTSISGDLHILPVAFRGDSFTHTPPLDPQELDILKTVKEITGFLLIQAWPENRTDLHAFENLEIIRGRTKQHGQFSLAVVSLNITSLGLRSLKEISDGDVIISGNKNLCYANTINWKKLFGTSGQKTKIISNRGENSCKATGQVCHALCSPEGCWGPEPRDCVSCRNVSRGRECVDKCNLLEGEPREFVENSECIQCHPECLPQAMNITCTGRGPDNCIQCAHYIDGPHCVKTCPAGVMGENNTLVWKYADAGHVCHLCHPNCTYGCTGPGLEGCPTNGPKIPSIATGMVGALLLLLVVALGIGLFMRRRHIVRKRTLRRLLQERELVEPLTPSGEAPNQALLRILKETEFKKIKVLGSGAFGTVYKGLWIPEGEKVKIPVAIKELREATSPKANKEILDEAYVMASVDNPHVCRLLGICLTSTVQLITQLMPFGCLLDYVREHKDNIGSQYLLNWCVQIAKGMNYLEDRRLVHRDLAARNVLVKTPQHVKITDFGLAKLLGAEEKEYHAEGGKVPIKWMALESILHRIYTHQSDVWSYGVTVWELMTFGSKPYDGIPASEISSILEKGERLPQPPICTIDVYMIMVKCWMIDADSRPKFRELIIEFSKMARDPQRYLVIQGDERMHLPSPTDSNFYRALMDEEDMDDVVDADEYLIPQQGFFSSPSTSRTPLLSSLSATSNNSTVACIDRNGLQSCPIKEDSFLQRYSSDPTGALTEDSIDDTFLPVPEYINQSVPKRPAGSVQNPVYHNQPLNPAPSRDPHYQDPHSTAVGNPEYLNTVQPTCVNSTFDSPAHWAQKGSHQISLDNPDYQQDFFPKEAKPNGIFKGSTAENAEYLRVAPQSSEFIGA
Sequence of Cyclooxygenase 2 (prostaglandin endoperoxide synthase 2) (P35354 18-604): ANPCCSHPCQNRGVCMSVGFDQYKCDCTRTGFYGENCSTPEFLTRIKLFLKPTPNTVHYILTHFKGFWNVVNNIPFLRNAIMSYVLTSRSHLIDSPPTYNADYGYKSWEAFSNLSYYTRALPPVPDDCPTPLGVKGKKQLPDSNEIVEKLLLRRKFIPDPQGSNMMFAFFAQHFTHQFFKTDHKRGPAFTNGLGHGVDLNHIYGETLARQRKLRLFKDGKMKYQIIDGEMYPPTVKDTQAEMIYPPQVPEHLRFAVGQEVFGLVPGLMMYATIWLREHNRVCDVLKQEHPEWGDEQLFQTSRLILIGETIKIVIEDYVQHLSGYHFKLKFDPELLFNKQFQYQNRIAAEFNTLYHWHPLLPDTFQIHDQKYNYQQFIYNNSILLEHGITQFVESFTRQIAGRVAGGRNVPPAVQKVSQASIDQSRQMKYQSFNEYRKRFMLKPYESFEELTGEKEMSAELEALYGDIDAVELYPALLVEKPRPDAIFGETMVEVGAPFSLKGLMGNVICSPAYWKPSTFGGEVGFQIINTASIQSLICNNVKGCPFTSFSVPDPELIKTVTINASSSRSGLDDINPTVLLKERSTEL
Sequence of Dopamine receptor 1 (D1) (P21728 whole entry): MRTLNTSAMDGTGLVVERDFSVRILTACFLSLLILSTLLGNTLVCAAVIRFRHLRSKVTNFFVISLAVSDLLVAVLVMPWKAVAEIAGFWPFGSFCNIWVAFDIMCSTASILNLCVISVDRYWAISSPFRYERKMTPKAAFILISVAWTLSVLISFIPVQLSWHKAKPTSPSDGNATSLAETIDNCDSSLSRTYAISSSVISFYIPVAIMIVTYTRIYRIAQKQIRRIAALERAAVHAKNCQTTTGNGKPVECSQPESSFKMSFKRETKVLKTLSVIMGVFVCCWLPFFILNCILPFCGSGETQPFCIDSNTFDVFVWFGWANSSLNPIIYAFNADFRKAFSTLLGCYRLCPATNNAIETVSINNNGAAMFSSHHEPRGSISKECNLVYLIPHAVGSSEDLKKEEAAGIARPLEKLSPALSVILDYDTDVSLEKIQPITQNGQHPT

With `CC(C)(C)c1ccc(CC[C@@](O)(CC(=O)O)C(=O)O)cc1` [Compound 2], in [1], the inhibition (commonly the relative decrease from the control value, in per cent) at 10 µM was below 10%. The plasma glucose concentrations result in series [2] is “modest but significant reductions”. Also, the inhibition at 100 µM in series [3] is 22%; in series [5], below 10%; in series [8] it was below 10%; in [9], below 10%. For the same compound, the genetic toxicity entry in series [4] is on record as “negative”. For the same compound, the “label incorporation in TAG” value in [6] is “decreased dose-dependently”. In series [7] (HEK-293-derived system overexpressing NaDC1), the “inhibition of citrate or succinate uptake, NaDC1” value is “No measurable inhibition”. Further, in series [7] (compound 4: mean of 2 replicates), the half-inhibitory concentration (IC50) – broadly, the midpoint of a concentration-inhibition curve – is above 100 µM. Besides, the “plasma insulin concentrations area under the curve during OGTT” value in [10] (HFD mice, 250 mg/kg BID) was “no differences”. Besides, in series [10] (setting [13]), the “hepatic TAG and DAG” value was “trend for lower”. Besides, the hepatic acylcarnitine result in series [10] (setting [13]) is recorded as “higher levels”. The β-hydroxybutyrate concentrations in series [10] (setting [13]) worked out at 0.49 ± 0.06 mmol/L. In addition, the “glucose intolerance during OGTT” value in series [10] (HFD mice, 250 mg/kg BID, day 20) is “completely reversed”. Also, the “phenotype analogous to epileptic encephalopathy” value in [10] (during the in vivo experiments) is “no phenotype analogous to epileptic encephalopathy was observed”. The inhibition at 3 µM in series [11] is below 10%. In series [12], the “interaction/inhibition of CYP2C9” value was “no significant interaction/inhibition”.
